Experimental data: patent US9403894B2, “Glucagon analogues” (Zealand Pharma A/S, priority 2010, dated 2016)
Residues, ends and D or L forms follow the SMILES beside them.

Key:
high fat diet fed mice = assay: 3 weeks s.c. treatment, lipids in 30 weeks high fat diet fed mice; format: in vivo; conditions: 30 weeks high fat diet mice, 10 nmol/kg s.c. twice daily
Protocol: The assay is an enzymatic colorimetric method. In the presence of magnesium ions, dextran sulfate selectively forms water-soluble complexes with LDL, VLDLA and chylomicrons, which are resistant to PEG-modified enzymes. The HDL cholesterol is determined enzymatically by cholesterol esterase and cholesterol oxidase coupled with PEG to the amino groups. Cholesterol esters are broken down quantitatively to free cholesterol and fatty acids. HDL cholesterol is enzymatically oxidized to choles-4-en-3-one and H2O2, and the formed H2O2 is measured colorimetrically (Cobas®; Application note HDLC3).
The direct determination of LDL takes advantage of the selective micellary solubilization of LDL by a nonionic detergent and the interaction of a sugar compound and lipoproteins (VLDL and chylomicrons). The combination of a sugar compound with detergent enables the selective determination of LDL in plasma. The test principle is the same as that of cholesterol and HDL, but due to the sugar and detergent only LDL-cholesterol esters are broken down to free cholesterol and fatty acids. Free cholesterol is then oxidized and the formed H2O2 is measured colorimetrically (Application note LDL_C, Cobas®).
The effect was measured on LDL, HDL and triglycerides (CHO: Total Cholesterol; HDL: High Density Cholesterol; LDL: Low Density Cholesterol; TRIG: Triglycerides; HDULDL: Ratio between HDL and LDL).

Glucagon receptor = Glucagon receptor (Homo sapiens, UniProt P47871); conditions: at 12.5 μM and 125 nM
Chain of Glucagon receptor (P47871 26-477): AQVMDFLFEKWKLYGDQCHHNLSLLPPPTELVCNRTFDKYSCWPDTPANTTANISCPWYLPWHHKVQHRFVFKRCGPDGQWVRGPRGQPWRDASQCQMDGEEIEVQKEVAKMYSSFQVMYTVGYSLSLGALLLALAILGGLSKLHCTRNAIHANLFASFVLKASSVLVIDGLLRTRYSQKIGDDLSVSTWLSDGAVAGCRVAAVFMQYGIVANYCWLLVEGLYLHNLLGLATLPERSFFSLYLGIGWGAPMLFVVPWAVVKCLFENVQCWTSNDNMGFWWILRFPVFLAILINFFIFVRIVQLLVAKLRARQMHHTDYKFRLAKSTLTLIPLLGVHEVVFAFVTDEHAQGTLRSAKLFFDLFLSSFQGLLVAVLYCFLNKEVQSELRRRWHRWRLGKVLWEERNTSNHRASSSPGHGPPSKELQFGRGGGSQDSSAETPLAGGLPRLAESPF
Protocol: Unless specified otherwise, the sample compounds were diluted in 100% anhydrous DMSO including all dilutions. If the sample compound is provided in a different solvent all master stock dilutions are performed in the specified solvent. All control wells contained identical solvent final concentrations as the sample compound wells.
Reference agonists were handled as mentioned above serving as assay control. The reference agonists were handled as described above for Emax.

GLP-1 receptor = GLP-1 receptor (Homo sapiens, UniProt P43220); assay: Class B GPCR counterscreen, calcium flux agonist format; format: cell-based; conditions: at 12.5 μM and 125 nM
Chain of GLP-1 receptor (P43220 24-463): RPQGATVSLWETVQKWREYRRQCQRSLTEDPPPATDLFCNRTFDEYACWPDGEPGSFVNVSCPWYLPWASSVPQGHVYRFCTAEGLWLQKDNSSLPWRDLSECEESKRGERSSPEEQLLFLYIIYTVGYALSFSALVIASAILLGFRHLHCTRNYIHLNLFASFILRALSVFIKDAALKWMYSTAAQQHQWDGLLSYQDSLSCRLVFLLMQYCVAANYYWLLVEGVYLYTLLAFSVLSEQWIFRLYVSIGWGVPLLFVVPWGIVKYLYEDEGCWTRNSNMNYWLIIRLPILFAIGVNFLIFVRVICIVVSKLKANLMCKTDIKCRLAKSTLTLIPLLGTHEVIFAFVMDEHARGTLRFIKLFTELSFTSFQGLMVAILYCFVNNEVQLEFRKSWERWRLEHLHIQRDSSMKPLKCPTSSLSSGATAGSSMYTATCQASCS
Description: (§1) The protocol design is as follows:

in vivo = conditions: male, cynomolgus monkey
Protocol: Plasma samples were withdrawn at the following time points; predose, 5, 10, 30 min, 1, 2, 4, 8, 12, 24 and 36 h post i.v. dosing and predose, 10, 30 min, 1, 2, 4, 8, 12, 24, 36 and 48 h post s.c. dosing. The vehicle consisted of 25 mM phosphate buffered saline at pH 7.4 (25 mM sodium phosphate, 25 mM NaCl). Plasma samples were analyzed using protein precipitation followed by solid phase extraction and LC-MS/MS analysis. Pharmacokinetic parameters were calculated using non-compartmental analysis in WinNonLin version 4.1.

db/db mice = assay: 6 weeks s.c. administration in db/db mice: HbA1c and body weight; format: in vivo; conditions: versus vehicle
Protocol: The HbA1c determination is based on Turbidimetric INhibition ImmunoAssay (TINIA) in which HbA1c in the sample reacts with anti-HbA1c to form soluble antigen-antibody complexes. Additions of polyhaptens react with excess anti-HbA1c antibodies to form an insoluble antibody-polyhapten complex, which can be measured turbidimetrically. Liberated hemoglobin in the hemolyzed sample is converted to a derivative having a characteristic absorption spectrum, which is measured bichromatically during the preincubation phases. The final result is expressed as percent HbA1c of total hemoglobin (Cobas®Application note A1C-2).
db/db (BKS.Cg-m+/+ Lepr^db/J) male mice, 5-6 weeks old, were obtained from Charles River Laboratories, Germany, and acclimatized in their new environment with free access to normal chow and water. […] Throughout the study, body weights were recorded daily and used to administer the body weight-corrected doses of peptide. HbA1c levels were measured on blood samples before treatment, and then once weekly during the study. […]
Blood samples were analyzed for HbA1c using the Cobas c111 analyzer (Roche Diagnostics, Mannheim, Germany). Samples for HbA1c analysis were analyzed within 24 hours of sampling.
Throughout the study, body weights were recorded daily and used to administer the body weight-corrected doses of peptide. […]

GIP receptor = molecular target: T1, GIP receptor (Homo sapiens, UniProt P48546); assay: Class B GPCR counterscreen, calcium flux antagonist format; format: cell-based; conditions: at 10 μM and 100 nM
T1 sequence (P48546 22-466): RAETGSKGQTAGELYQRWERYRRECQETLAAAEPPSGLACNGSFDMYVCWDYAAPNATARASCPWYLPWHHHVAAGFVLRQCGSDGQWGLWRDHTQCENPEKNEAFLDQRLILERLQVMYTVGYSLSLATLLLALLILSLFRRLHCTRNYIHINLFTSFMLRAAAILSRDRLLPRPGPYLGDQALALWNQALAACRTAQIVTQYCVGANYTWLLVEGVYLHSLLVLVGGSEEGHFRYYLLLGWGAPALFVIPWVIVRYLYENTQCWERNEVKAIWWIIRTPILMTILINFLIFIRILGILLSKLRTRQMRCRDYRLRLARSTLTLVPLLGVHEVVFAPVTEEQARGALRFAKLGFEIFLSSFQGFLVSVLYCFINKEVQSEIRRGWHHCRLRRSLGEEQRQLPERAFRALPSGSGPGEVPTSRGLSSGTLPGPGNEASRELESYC
Protocol: as §1
(§2) Using the EC80 values determined previously, stimulated all pre-incubated sample compound and reference antagonist (if applicable) wells with EC80 of reference agonist.
(§3) Read for 180 seconds using the FLIPR^TETRA (this addition added reference agonist to respective wells)—then fluorescence measurements were collected to calculate IC50-values.

CRF2 receptor = molecular target: T2, CRF2 receptor (Homo sapiens, UniProt Q13324); assay: as above; format: cell-based; conditions: at 10 μM
T2 sequence (Q13324 1-411): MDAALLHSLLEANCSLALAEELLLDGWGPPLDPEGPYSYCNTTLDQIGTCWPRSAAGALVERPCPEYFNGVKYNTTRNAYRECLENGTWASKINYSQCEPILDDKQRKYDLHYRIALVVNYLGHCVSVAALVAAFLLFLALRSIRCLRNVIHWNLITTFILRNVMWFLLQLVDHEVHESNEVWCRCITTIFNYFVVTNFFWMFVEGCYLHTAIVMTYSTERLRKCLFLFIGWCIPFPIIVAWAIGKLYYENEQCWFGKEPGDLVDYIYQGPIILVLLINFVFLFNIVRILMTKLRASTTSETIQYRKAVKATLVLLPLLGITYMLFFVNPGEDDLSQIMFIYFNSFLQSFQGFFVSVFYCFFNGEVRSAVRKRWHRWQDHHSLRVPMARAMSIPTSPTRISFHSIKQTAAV
Protocol: as §1, §2, §3

Secretin receptor = Secretin receptor (Homo sapiens, UniProt P47872); assay: as above; format: cell-based; conditions: at 10 μM
Chain of Secretin receptor (P47872 23-440, species assumed): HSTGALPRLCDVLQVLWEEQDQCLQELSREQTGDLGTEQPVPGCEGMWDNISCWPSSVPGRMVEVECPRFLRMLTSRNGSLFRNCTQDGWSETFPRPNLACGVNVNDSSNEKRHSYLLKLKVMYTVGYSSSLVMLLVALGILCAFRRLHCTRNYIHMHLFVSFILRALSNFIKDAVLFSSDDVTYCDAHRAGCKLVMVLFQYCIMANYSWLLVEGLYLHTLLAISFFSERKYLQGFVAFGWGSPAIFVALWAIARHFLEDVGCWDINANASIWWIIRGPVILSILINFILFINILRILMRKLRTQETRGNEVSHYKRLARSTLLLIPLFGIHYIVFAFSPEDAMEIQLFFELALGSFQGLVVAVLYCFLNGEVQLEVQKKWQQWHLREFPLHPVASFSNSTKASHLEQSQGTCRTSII
Protocol: as §1, §2, §3

[1] = test system: diet induced obese C57BL/6J mice; assay: 3 weeks s.c. treatment in diet induced obese C57BL/6J mice: body weight and OGTT; format: in vivo; conditions: s.c. twice daily
Protocol: C57Bl/6J male mice, 6 weeks old, were acclimatized in their new environment with free access to a high fat diet and water. 36 weeks old, the animals were randomized into groups with similar average fasting (6 hours) blood glucose (assessed from blood samples taken from the tip of the tail). The mice were treated twice daily s.c. for three weeks with compound 6 or vehicle. Body weight was recorded daily. After peptide treatment an oral glucose tolerance test (OGTT) were performed after subjecting the animals to a 6 hour fast. Animals were dosed with peptide or vehicle in the morning. Approximately four hours later an initial blood sample (fasting blood glucose level) was taken. Thereafter an oral dose of glucose was given and the animals were returned to their home cages (t=0). BG was measured at t=15 min, t=30 min, t=60 min, t=90 min and t=120 min. All animals were sacrificed immediately following blood sampling by CO2 anesthesia followed by cervical dislocation.

[2] = test system: high fat fed C57BL/6J mice; assay: Body weight gain in high fat fed C57BL/6J mice, 10 days s.c. treatment; format: in vivo; conditions: both doses 0.5 and 5 nmol/kg s.c. twice daily
Protocol: C57BL/6J mice were acclimatized in their new environment for 4 weeks with free access to a high fat diet and water. […] Throughout the study, body weights were recorded daily and used to administer the body weight-corrected doses of peptide (FIG. 6). Mice were sacrificed by cervical dislocation.

[3] = diet induced obese C57BL/6J mice

Structure (SMILES)	effect on HDL (high fat diet fed mice; P<0.001)	effect on LDL (high fat diet fed mice; P<0.001)	effect on total cholesterol (high fat diet fed mice; P<0.001)	effect on triglycerides (high fat diet fed mice; P<0.05)	effect on ratio HDULDL (high fat diet fed mice; p<0.001)	agonist activity, Glucagon receptor (Glucagon receptor)	agonist activity, GLP-1 receptor (GLP-1 receptor)	bioavailability (in vivo)	Tmax (in vivo; sc, 20 nmol/kg)	effect on body weight gain (db/db mice; db/db mice, 5 nmol/kg s.c. twice daily, p<0.0001)	effect on increase in HbA1c over time (db/db mice; db/db mice, 1, 2.5 and 5 nmol/kg s.c. twice daily)	antagonist activity, GIP receptor (GIP receptor)	antagonist activity, CRF2 receptor (CRF2 receptor)	antagonist activity, Secretin receptor (Secretin receptor)	decrease of body weight ([1]; diet induced obese C57BL/6J mice (30 weeks high fat diet), p<0.05)	body weight level reached compared with non-treated controls on regular chow diet [1, 3]	effect on fasting blood glucose [1, 3]	effect on glucose tolerance (decrease in AUC during OGTT) ([1]; diet induced obese C57BL/6J mice, 6 hour fast)	effect on body weight gain [2]
CCCCCCCCCCCCCCCC(=O)N[C@@H](CCC(=O)NCCCC[C@H](NC(=O)[C@H](CCC(=O)O)NC(=O)[C@H](CC(=O)O)NC(=O)[C@H](CC(C)C)NC(=O)[C@H](Cc1ccc(O)cc1)NC(=O)[C@H](CCCCN)NC(=O)[C@H](CO)NC(=O)[C@H](Cc1ccc(O)cc1)NC(=O)[C@H](CC(=O)O)NC(=O)[C@H](CO)NC(=O)[C@@H](NC(=O)[C@H](Cc1ccccc1)NC(=O)[C@@H](NC(=O)CNC(=O)[C@H](CCC(N)=O)NC(=O)[C@H](CO)NC(=O)[C@@H](N)Cc1c[nH]cn1)[C@@H](C)O)[C@@H](C)O)C(=O)N[C@@H](CCCNC(=N)N)C(=O)N[C@@H](C)C(=O)N[C@@H](CCCCN)C(=O)N[C@@H](CC(=O)O)C(=O)N[C@@H](Cc1ccccc1)C(=O)N[C@H](C(=O)N[C@@H](CCC(=O)O)C(=O)N[C@@H](Cc1c[nH]c2ccccc12)C(=O)N[C@@H](CC(C)C)C(=O)N[C@@H](CC(C)C)C(=O)N[C@@H](CO)C(=O)N[C@@H](C)C(N)=O)[C@@H](C)CC)C(=O)O [Compound 6]	significantly decreased	significantly decreased	significantly decreased	significantly decreased	increased significantly	exhibited agonist activities	exhibited agonist activities	43%	4 to 8 h	significantly decreased body weight gain compared to vehicle	did not at any time-point reduce the increase in HbA1c	exhibited antagonist activity	exhibited antagonist activity	exhibited antagonist activity	38.7%	stabilized to the same body weight as obtained by non-treated control animals on a regular chow diet	significantly decreased fasting blood glucose	no significant effect on glucose tolerance	significantly decreased body weight gain
CCCCCCCCCCCCCCCC(=O)N[C@@H](CCC(=O)NCCCC[C@H](NC(=O)[C@H](CCC(=O)O)NC(=O)[C@H](CC(=O)O)NC(=O)[C@H](CC(C)C)NC(=O)[C@H](Cc1ccc(O)cc1)NC(=O)[C@H](CCCCN)NC(=O)[C@H](CO)NC(=O)[C@H](Cc1ccc(O)cc1)NC(=O)[C@H](CC(=O)O)NC(=O)[C@H](CO)NC(=O)[C@@H](NC(=O)[C@H](Cc1ccccc1)NC(=O)[C@@H](NC(=O)CNC(=O)[C@H](CCC(N)=O)NC(=O)C(C)(C)NC(=O)[C@@H](N)Cc1c[nH]cn1)[C@@H](C)O)[C@@H](C)O)C(=O)N[C@@H](CCCNC(=N)N)C(=O)N[C@@H](C)C(=O)N[C@@H](CCCCN)C(=O)N[C@@H](CC(=O)O)C(=O)N[C@@H](Cc1ccccc1)C(=O)N[C@H](C(=O)N[C@@H](CCC(=O)O)C(=O)N[C@@H](Cc1c[nH]c2ccccc12)C(=O)N[C@@H](CC(C)C)C(=O)N[C@@H](CC(C)C)C(=O)N[C@@H](CO)C(=O)N[C@@H](C)C(N)=O)[C@@H](C)CC)C(=O)O [Compound 7] (HELM PEPTIDE1{H.[Aib].Q.G.T.F.T.S.D.Y.S.K.Y.L.D.E.K.R.A.K.D.F.I.E.W.L.L.S.A.[am]}|PEPTIDE2{[CCCCCCCCCCCCCCCC(=O)[*:2]].[gGlu]}$PEPTIDE1,PEPTIDE2,17:R3-2:R2$$$V2.0)	–	–	–	–	–	–	–	–	–	–	–	–	–	–	–	–	–	–	significantly decreased body weight gain
